Laboratory results from US8722849B2, “Polypeptides” (Novo Nordisk A/S, priority 2011, dated 2014).
Values after ≈ are worked out from the molar mass of the structure shown. Read-outs that look alike come from different tables or passages of the source. Starred links: 1 amine or outer side, 2 acyl side, 3 side chain; linkers in the order of their positions; H or OH if unused. Positions of bridges follow the written chain, without caps; N, C: chain ends. Residues, ends and D or L forms follow the SMILES beside them. *: point of attachment. C20 diacid = O=C(O)CCCCCCCCCCCCCCCCCCC(=O)*; γGlu = O=C(O)[C@H](CCC(=O)[*:2])N[*:1]

What was measured:
[1] = biological target: T1, human amylin receptor (amylin 3(a) receptor: human calcitonin receptor + RAMP-3) (Homo sapiens, UniProt O60896+P30988); assay: Assay (II)a functional CRE-luciferase assay, human amylin receptor; assay type: cell-based
T1 construct: expressed in transfected cells; host or cells: BHK570
T1 sequence (P30988 25-474): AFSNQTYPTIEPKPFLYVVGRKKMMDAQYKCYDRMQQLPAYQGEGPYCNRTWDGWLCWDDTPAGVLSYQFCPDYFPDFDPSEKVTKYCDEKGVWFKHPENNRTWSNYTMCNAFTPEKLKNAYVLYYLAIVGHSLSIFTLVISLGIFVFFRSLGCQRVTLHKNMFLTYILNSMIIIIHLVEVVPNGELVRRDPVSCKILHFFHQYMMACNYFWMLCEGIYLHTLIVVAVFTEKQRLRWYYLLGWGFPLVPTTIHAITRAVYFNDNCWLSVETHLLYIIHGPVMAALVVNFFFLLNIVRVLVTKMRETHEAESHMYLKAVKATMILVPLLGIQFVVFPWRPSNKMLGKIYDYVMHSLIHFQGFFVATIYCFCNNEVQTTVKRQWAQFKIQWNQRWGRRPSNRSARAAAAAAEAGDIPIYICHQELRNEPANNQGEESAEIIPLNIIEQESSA
T1 sequence (O60896 24-148 partner): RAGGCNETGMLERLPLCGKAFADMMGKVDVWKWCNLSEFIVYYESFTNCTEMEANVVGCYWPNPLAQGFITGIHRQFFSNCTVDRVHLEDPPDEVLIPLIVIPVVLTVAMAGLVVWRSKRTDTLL

[2] = biological target: T2, human calcitonin receptor (Homo sapiens, UniProt P30988); assay: Assay (II)a functional CRE-luciferase assay, human calcitonin receptor; assay type: cell-based
T2 construct: expressed in transfected cells; host or cells: BHK570
T2 sequence (P30988 25-474): T1 sequence (P30988 25-474)

[3] = Assay (III) ThT fibrillation assay for physical stability; assay type: physicochemical
Outline: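 Freshly prepared formulations, pH-adjusted, with 1 μM ThT; four or eight replicates incubated at 37 °C under 960 rpm orbital shaking. Fluorescence (ex 444/em 485 nm) read every 20 min; […]. Peptide concentration measured by RP-HPLC before and after the run.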

[4] = Assay (IV) determination of solubility; assay type: physicochemical
Outline: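 Solubility is measured across pH 3.0–8.0 by mixing a ~500 nmol/ml aqueous polypeptide stock 1:1 with 100 mM glycylglycine or bistrispropane buffers. Samples stand 18 hours at room temperature, then are centrifuged and the soluble concentration is determined by HPLC.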

[5] = Table 2, BHK amylin 3(a)-receptor/CRE-luc cells
[6] = Table 7, human calcitonin (CTa) receptor
[7] = bistrispropane buffer, pH 6, pH 6.0, read-out: Solubility pH 6.0
[8] = bistrispropane buffer, pH 6.5, pH 6.5, read-out: Solubility pH 6.5
[9] = bistrispropane buffer, pH 7, pH 7.0, 18 hours at room temperature, Table 3, read-out: Solubility pH 7.0
[10] = bistrispropane buffer, pH 7, pH 7.0, read-out: Solubility pH 7.0
[11] = bistrispropane buffer, pH 7.5, pH 7.5, read-out: Solubility pH 7.5
[12] = bistrispropane buffer, pH 8, pH 8.0, read-out: Solubility pH 8.0
[13] = glycylglycine buffer, pH 3, pH 3.0, read-out: Solubility pH 3.0
[14] = glycylglycine buffer, pH 4, pH 4.0, 18 hours at room temperature, Table 2, read-out: Solubility pH 4.0
[15] = glycylglycine buffer, pH 4, pH 4.0, read-out: Solubility pH 4.0
[16] = glycylglycine buffer, pH 5, pH 5.0, read-out: Solubility pH 5.0

Structure (SMILES)	EC50 [1, 5] [nM]	EC50 [2, 6] [nM]	ThT pH 4.0 lag time ([3]; ThT fibrillation assay) [h]	ThT pH 4.0 lag time (h) ([3]; ThT fibrillation assay)	solubility at 18 h [4, 7] [µM]	solubility at 18 h [4, 8] [µM]	solubility at 18 h [4, 9] [µM]	solubility at 18 h [4, 10] [µM]	solubility at 18 h [4, 11] [µM]	solubility at 18 h [4, 12] [µM]	solubility at 18 h [4, 13] [µM]	solubility at 18 h [4, 14] [µM]	solubility at 18 h [4, 15] [µM]	solubility at 18 h [4, 16] [µM]	further results
CC[C@H](C)[C@H](NC(=O)[C@@H]1CCCN1C(=O)CNC(=O)[C@H](Cc1ccccc1)NC(=O)[C@H](CC(N)=O)NC(=O)[C@H](CCC(N)=O)NC(=O)[C@H](CO)NC(=O)[C@H](CO)NC(=O)[C@H](Cc1c[nH]cn1)NC(=O)[C@H](CCCNC(=N)N)NC(=O)[C@H](CC(C)C)NC(=O)[C@H](Cc1ccccc1)NC(=O)[C@H](CCC(=O)O)NC(=O)[C@H](C)NC(=O)[C@H](CC(C)C)NC(=O)[C@H](CCCNC(=N)N)NC(=O)[C@H](CCC(N)=O)NC(=O)[C@@H](NC(=O)[C@H](C)NC(=O)[C@@H]1CSSC[C@H](NC(=O)[C@H](CCC(=O)O)NC(=O)[C@H](CCCNC(=N)N)NC(=O)[C@H](CCC(=O)O)NC(=O)CC[C@H](NC(=O)CCCCCCCCCCCCCCCCCCC(=O)O)C(=O)O)C(=O)N[C@@H](CC(N)=O)C(=O)N[C@@H]([C@@H](C)O)C(=O)N[C@@H](C)C(=O)N[C@@H]([C@@H](C)O)C(=O)N1)[C@@H](C)O)C(=O)N[C@@H](CC(C)C)C(=O)N1CCC[C@H]1C(=O)N1CCC[C@H]1C(=O)N[C@H](C(=O)N[C@@H](CC(N)=O)C(=O)N[C@H](C(=O)NCC(=O)N[C@@H](CO)C(=O)N[C@@H](CC(N)=O)C(=O)N[C@H](C(=O)N1CCC[C@H]1C(N)=O)[C@@H](C)O)C(C)C)[C@@H](C)O [Example 161, N-alpha-[(S)-4-Carboxy-4-(19-carboxynonadecanoylamino)butyryl]-Glu-Arg-[Glu1,Glu14,Arg17,Gln21,Pro37]-pramlintide] ({C20 diacid-γGlu}-ERECNTATCATQRLAEFLRHSSQNFGPILPPTNVGSNTP-NH2; disulfide 4-9 (inferred); C-terminus assumed)	0.232	1.13	>45	>45	> 200	> 200	> 200	> 200	> 200	> 200	> 200	> 200	> 200	> 200	ThT pH 4.0 lag time ([3]; Table 8): >45 h; ThT pH 4.0 lag time ([3]; Table 9): >45 h; solubility at 18 h ([4]; bistrispropane buffer, pH 7, pH 7.0, Table 8, read-out: Solubility pH 7.0): > 200 µM; solubility at 18 h ([4]; bistrispropane buffer, pH 7, pH 7.0, Table 9, read-out: Solubility pH 7.0): > 200 µM; solubility at 18 h ([4]; bistrispropane buffer, pH 7.5, pH 7.5, Table 9, read-out: Solubility pH 7.5): > 200 µM
CC[C@H](C)[C@H](NC(=O)[C@@H]1CCCN1C(=O)CNC(=O)[C@H](Cc1ccccc1)NC(=O)[C@H](CC(N)=O)NC(=O)[C@H](CO)NC(=O)[C@H](CO)NC(=O)[C@H](CO)NC(=O)[C@H](Cc1c[nH]cn1)NC(=O)[C@H](CCCNC(=N)N)NC(=O)[C@H](CC(C)C)NC(=O)[C@H](Cc1ccccc1)NC(=O)[C@H](CCC(=O)O)NC(=O)[C@H](C)NC(=O)[C@H](CC(C)C)NC(=O)[C@H](CCCNC(=N)N)NC(=O)[C@H](CCC(N)=O)NC(=O)[C@@H](NC(=O)[C@H](C)NC(=O)[C@@H]1CSSC[C@H](NC(=O)[C@H](Cc2c[nH]cn2)NC(=O)CC[C@H](NC(=O)CCCCCCCCCCCCCCCCCCC(=O)O)C(=O)O)C(=O)N[C@@H](CC(N)=O)C(=O)N[C@@H]([C@@H](C)O)C(=O)N[C@@H](C)C(=O)N[C@@H]([C@@H](C)O)C(=O)N1)[C@@H](C)O)C(=O)N[C@@H](CC(C)C)C(=O)N[C@@H](CO)C(=O)N[C@@H](CO)C(=O)N[C@H](C(=O)N[C@@H](CC(N)=O)C(=O)N[C@H](C(=O)NCC(=O)N[C@@H](CO)C(=O)N[C@@H](Cc1c[nH]cn1)C(=O)N[C@H](C(=O)N[C@@H](Cc1ccc(O)cc1)C(N)=O)[C@@H](C)O)C(C)C)[C@@H](C)O [Example 111, N-alpha-[(S)-4-Carboxy-4-(19-carboxynonadecanoylamino)butyryl]-[His1,Glu14,Arg17,Ser21,Ser28,Ser29,His35]-pramlintide] ({C20 diacid-γGlu}-HCNTATCATQRLAEFLRHSSSNFGPILSSTNVGSHTY-NH2; disulfide 2-7 (inferred))	0.394	0.57	>45	>45	2 (≈ 8.92 µg/mL)	1 (≈ 4.46 µg/mL)	–	1 (≈ 4.46 µg/mL)	1 (≈ 4.46 µg/mL)	3 (≈ 13.4 µg/mL)	> 200	> 200	> 200	> 200	–
CC[C@H](C)[C@H](NC(=O)[C@@H]1CCCN1C(=O)CNC(=O)[C@H](Cc1ccccc1)NC(=O)[C@H](CC(N)=O)NC(=O)[C@H](CC(N)=O)NC(=O)[C@H](CO)NC(=O)[C@H](CO)NC(=O)[C@H](Cc1c[nH]cn1)NC(=O)[C@@H](NC(=O)[C@H](CC(C)C)NC(=O)[C@H](Cc1ccccc1)NC(=O)[C@H](CC(N)=O)NC(=O)[C@H](C)NC(=O)[C@H](CC(C)C)NC(=O)[C@H](CCCNC(=N)N)NC(=O)[C@H](CCC(N)=O)NC(=O)[C@@H](NC(=O)[C@H](C)NC(=O)[C@@H]1CSSC[C@H](NC(=O)[C@H](CCCNC(=N)N)NC(=O)CC[C@H](NC(=O)CCCCCCCCCCCCCCCCCCC(=O)O)C(=O)O)C(=O)N[C@@H](CC(N)=O)C(=O)N[C@@H]([C@@H](C)O)C(=O)N[C@@H](C)C(=O)N[C@@H]([C@@H](C)O)C(=O)N1)[C@@H](C)O)C(C)C)C(=O)N[C@@H](CC(C)C)C(=O)N1CCC[C@H]1C(=O)N1CCC[C@H]1C(=O)N[C@H](C(=O)N[C@@H](CC(N)=O)C(=O)N[C@H](C(=O)NCC(=O)N[C@@H](CO)C(=O)N[C@@H](CC(N)=O)C(=O)N[C@H](C(=O)N1CCC[C@H]1C(N)=O)[C@@H](C)O)C(C)C)[C@@H](C)O [Example 97] ({C20 diacid-γGlu}-RCNTATCATQRLANFLVHSSNNFGPILPPTNVGSNTP-NH2; disulfide 2-7 (inferred); C-terminus assumed)	–	–	–	1.7	> 200	> 200	–	> 200	> 200	> 200	> 200	–	> 200	> 200	EC50 ([1]; Table 11): 0.034 nM; EC50 ([2]; Table 11, read-out: CTa receptor human EC50): 0.0385 nM
CC[C@H](C)[C@H](NC(=O)[C@@H]1CCCN1C(=O)CNC(=O)[C@H](Cc1ccccc1)NC(=O)[C@H](CC(N)=O)NC(=O)[C@H](CC(N)=O)NC(=O)[C@H](CO)NC(=O)[C@H](CO)NC(=O)[C@H](Cc1c[nH]cn1)NC(=O)[C@H](Cc1c[nH]cn1)NC(=O)[C@H](CC(C)C)NC(=O)[C@H](Cc1ccccc1)NC(=O)[C@H](CCC(=O)O)NC(=O)[C@H](C)NC(=O)[C@H](CC(C)C)NC(=O)[C@H](CCCNC(=N)N)NC(=O)[C@H](CCC(N)=O)NC(=O)[C@@H](NC(=O)[C@H](C)NC(=O)[C@@H]1CSSC[C@H](NC(=O)CC[C@H](NC(=O)CCCCCCCCCCCCCCCCCCC(=O)O)C(=O)O)C(=O)N[C@@H](CC(N)=O)C(=O)N[C@@H]([C@@H](C)O)C(=O)N[C@@H](C)C(=O)N[C@@H]([C@@H](C)O)C(=O)N1)[C@@H](C)O)C(=O)N[C@@H](CC(C)C)C(=O)N1CCC[C@H]1C(=O)N1CCC[C@H]1C(=O)N[C@H](C(=O)N[C@@H](CC(N)=O)C(=O)N[C@H](C(=O)NCC(=O)N[C@@H](CO)C(=O)N[C@@H](CC(N)=O)C(=O)N[C@H](C(=O)N1CCC[C@H]1C(N)=O)[C@@H](C)O)C(C)C)[C@@H](C)O [Example 104, N-alpha-[(S)-4-Carboxy-4-(19-carboxynonadecanoylamino)butyryl]-[des1,Glu14,His17,Pro37]-pramlintide] ({C20 diacid-γGlu}-CNTATCATQRLAEFLHHSSNNFGPILPPTNVGSNTP-NH2; disulfide 1-6 (inferred))	0.0795	0.107	–	23	> 200	> 200	> 200	> 200	> 200	> 200	> 200	> 200	> 200	> 200	–
